We go through 30 molecules from PubChem BioAssay (NCI).

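96-well plates; 48 h exposure; 5 concentrations. Endpoints by linear interpolation between flanking doses. Not reached: highest tested concentration assigned. The concentration for 50% growth inhibition is given as GI50. The concentration for full growth arrest is given as TGI.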

For one experiment, the system named is RPMI-8226 leukemia. The experiment is described as follows: DTP human tumour cell line panel, 48 h.
Take `COC(=O)C1=C(C)NC(C)=C(C(=O)OCCCN2CCC(c3ccccc3)(c3ccccc3)CC2)C1c1cccc([N+](=O)[O-])c1` (stereo unspecified): the TGI worked out at 5.82 µM.

With `COc1ccc([C@H]2[C@@H](F)C(=O)N2c2cc(OC)c(OC)c(OC)c2)cc1F`, the GI50 was 0.055 µM and the TGI was determined as 37.3 µM.

With `CC1(C)C2CCC(=O)C1CC2` (stereo unspecified), the TGI was more than 100 µM.

Consider `CCCCCCN(CCCCCC)C(=O)Cc1c2n(c3ccccc13)Cc1ccccc1-2`, for which the TGI was more than 100 µM.

`C/C(=N\NC(=S)NC(CCC(=O)O)C(=O)O)c1ccccn1` (stereo unspecified): the TGI was more than 100 µM.

`Brc1ccccc1C1SCc2nc3ccccc3n21` (stereo unspecified) came in with a TGI of more than 100 µM.

`O=C(/C=C\c1ccc(Cl)c(Cl)c1)c1ccc(Cl)cc1Cl`: the GI50 was 2.35 µM and the concentration for total growth inhibition (TGI) was 41.4 µM.

In turn, `CCOC(=O)C(=C=C=C(c1ccccc1)c1ccccc1)C(=O)OCC` gave a TGI of 44.9 µM. This lies in the double-digit micromolar range.

As to `Cn1c2ccccc2c2cc(-c3ccccc3)c3c(c21)C(=O)c1ccccc1C3=O`, the TGI came to 25.3 µM. Compared with the last molecule, the TGI is about 1.8-fold lower.

For `c1ccc(COc2cccc3ccc[n+](Cc4ccccc4)c23)cc1`, the TGI was found to be 14.2 µM.

As to `CC1=CC(O)(c2ccc(-c3ccccc3Cl)cc2)OC1=O` (stereo unspecified), the TGI was more than 100 µM.

As for `CCOC(=O)CC(=O)ON(C)C(C)=O`, the total growth inhibition concentration (TGI) was more than 100 µM.

`COc1cc(NCc2ccc3oc(=O)c(-c4ccccc4)nc3c2)cc(OC)c1OC` showed a TGI of more than 10 µM.

`CCc1cc(Cc2cc(CC)c(NC(=O)C(=O)Cc3ccccn3)c(CC)c2Cl)c(Cl)c(CC)c1NC(=O)C(=O)Cc1ccccn1` yielded a TGI of more than 100 µM.

As for `CC(C)OP(=O)(OC(C)C)C(=NCCN=C(NNc1ccc([N+](=O)[O-])cc1)P(=O)(OC(C)C)OC(C)C)NNc1ccc([N+](=O)[O-])cc1`, the TGI was more than 100 µM.

For the molecule `COC(OC)C(C)CC(=O)N(C)C` (stereo unspecified), the TGI is more than 100 µM.

Molecule `O=S1(=O)OCCOS(=O)(=O)C1Br` registered a TGI of more than 100 µM.

For the molecule `CC(C)=Cc1cc(C(=O)Nc2ccc(Cl)c(Cl)c2)nc(N)n1`, the TGI is more than 100 µM.

In turn, `C#CC1(O)CCC2C3CCc4cc(Oc5nc(F)nc(-c6c7ccccc7c7sc8ccccc8n67)n5)ccc4C3CC[C@@]21C` (stereo partly specified) displayed a TGI of more than 100 µM.

Take `CC(=O)/C(=C\c1cccc([N+](=O)[O-])c1)C(=O)Nc1ccccc1C`: the TGI is more than 100 µM.

Turning to `Clc1ccc(C(c2ccc(Cl)cc2)c2ccccn2)cc1`, the total growth inhibition concentration (TGI) was found to be 84.5 µM.

In turn, `C[Si](C)(C)C1(Sc2ccccc2)SCCCS1` gave a TGI of more than 100 µM.

Turning to `CC(C)(C)OC(=O)N[C@H]1CC2(C=C(Cl)C(=O)C(Cl)=C2)OC1=O`, the TGI came to 19.8 µM. In other words, the double-digit micromolar range.

`O=c1cc(-c2ccccc2)oc2cc(OCCCOc3ccc4c(=O)cc(-c5ccccc5)oc4c3)ccc12`: the TGI is more than 100 µM.

The test system of another experiment is MDA-MB-435. The experiment is described as follows: DTP human tumour cell line panel, 48 h.
Turning to `CN1CCN(CCCn2c(=O)c3sc4ncccc4c3n3nnc(-c4ccccc4)c23)CC1`, the GI50 is 1.18 µM and the TGI is 3.01 µM.

`COC(=O)C1=C(C)NC(C)=C(C(=O)OCCCN2CCC(c3ccccc3)(c3ccccc3)CC2)C1c1cccc([N+](=O)[O-])c1` (stereo unspecified) yielded a TGI of 3.02 µM.

`CC1(C)C2CCC(=O)C1CC2` (stereo unspecified) displayed a TGI of more than 100 µM.

As to `COc1cc(NCc2ccc3oc(=O)c(-c4ccccc4)nc3c2)cc(OC)c1OC`, the TGI was more than 10 µM.

In a further experiment the test system is NCI-H226 lung. The experiment is described as follows: DTP human tumour cell line panel, 48 h.
The molecule `CCOC(=O)NC(=O)c1cn(CCCO)c(=O)[nH]c1=O` registered a TGI of more than 100 µM.

`CCN1c2ccccc2C(C(SC)S(=O)(=O)c2ccc(C)cc2)c2c1[nH]c(=O)n(C)c2=O` (stereo unspecified) returned a concentration for total growth inhibition (TGI) of more than 100 µM.

Molecule `COc1ccc(S(=O)(=O)NNS(C)(=O)=O)cc1` had a TGI of more than 100 µM.

For the molecule `CN1CCN(CCCn2c(=O)c3sc4ncccc4c3n3nnc(-c4ccccc4)c23)CC1`, the GI50 was 7.4 µM and the concentration for total growth inhibition (TGI) worked out at 15.3 µM.

In the case of `CC(=O)OC1COC(n2ccc3cc(Br)c([N+](=O)[O-])cc32)C(OC(C)=O)C1OC(C)=O` (stereo unspecified), the TGI is 43.9 µM.

The molecule `Cn1cnc([N+](=O)[O-])c1Sc1nc2ccccc2[nH]1` registered a TGI of 78.1 µM.

With `COC(=O)C1=C(C)NC(C)=C(C(=O)OCCCN2CCC(c3ccccc3)(c3ccccc3)CC2)C1c1cccc([N+](=O)[O-])c1` (stereo unspecified), the TGI was found to be 18.2 µM.

Take `COc1ccc([C@H]2[C@@H](F)C(=O)N2c2cc(OC)c(OC)c(OC)c2)cc1F`: the GI50 was 22.2 µM and the TGI is more than 100 µM.

`CC1(C)C2CCC(=O)C1CC2` (stereo unspecified) showed a TGI of more than 100 µM.

As for `CCCCCCN(CCCCCC)C(=O)Cc1c2n(c3ccccc13)Cc1ccccc1-2`, the TGI is more than 100 µM.

`C/C(=N\NC(=S)NC(CCC(=O)O)C(=O)O)c1ccccn1` (stereo unspecified) displayed a TGI of more than 100 µM.

The molecule `Brc1ccccc1C1SCc2nc3ccccc3n21` (stereo unspecified) showed a TGI of 31.6 µM. That is a double-digit micromolar value.

Turning to `O=C(/C=C\c1ccc(Cl)c(Cl)c1)c1ccc(Cl)cc1Cl`, the GI50 is 6.39 µM and the TGI is 21.2 µM.

`CCOC(=O)C(=C=C=C(c1ccccc1)c1ccccc1)C(=O)OCC` gave a total growth inhibition concentration (TGI) of 37.6 µM.

As to `Cn1c2ccccc2c2cc(-c3ccccc3)c3c(c21)C(=O)c1ccccc1C3=O`, the concentration for total growth inhibition (TGI) amounted to 84 µM.

Molecule `c1ccc(COc2cccc3ccc[n+](Cc4ccccc4)c23)cc1` yielded a TGI of 25.5 µM.

In the case of `CCOC(=O)CC(=O)ON(C)C(C)=O`, the TGI is more than 100 µM.

The molecule `COc1cc(NCc2ccc3oc(=O)c(-c4ccccc4)nc3c2)cc(OC)c1OC` yielded a TGI of more than 10 µM.

`CCc1cc(Cc2cc(CC)c(NC(=O)C(=O)Cc3ccccn3)c(CC)c2Cl)c(Cl)c(CC)c1NC(=O)C(=O)Cc1ccccn1` registered a TGI of more than 100 µM.

With `CC(C)OP(=O)(OC(C)C)C(=NCCN=C(NNc1ccc([N+](=O)[O-])cc1)P(=O)(OC(C)C)OC(C)C)NNc1ccc([N+](=O)[O-])cc1`, the TGI is 93.3 µM.

In the case of `COC(OC)C(C)CC(=O)N(C)C` (stereo unspecified), the TGI is more than 100 µM.

For `O=S1(=O)OCCOS(=O)(=O)C1Br`, the TGI is more than 100 µM.

Turning to `CC(C)=Cc1cc(C(=O)Nc2ccc(Cl)c(Cl)c2)nc(N)n1`, the concentration for total growth inhibition (TGI) is more than 100 µM.

With `C#CC1(O)CCC2C3CCc4cc(Oc5nc(F)nc(-c6c7ccccc7c7sc8ccccc8n67)n5)ccc4C3CC[C@@]21C` (stereo partly specified), the total growth inhibition concentration (TGI) was more than 100 µM.

In the case of `CC(=O)/C(=C\c1cccc([N+](=O)[O-])c1)C(=O)Nc1ccccc1C`, the TGI was more than 100 µM.

Take `Clc1ccc(C(c2ccc(Cl)cc2)c2ccccn2)cc1`: the TGI is 31.9 µM.

For the molecule `CC(C)(C)OC(=O)N[C@H]1CC2(C=C(Cl)C(=O)C(Cl)=C2)OC1=O`, the TGI was more than 81.6 µM.

The TGI is the concentration at which net growth stops. Lower therefore signals greater sensitivity of the cells. One may read the GI50 as the concentration that inhibits growth by half.
